The source of these data is article PMC3256212, “Mechanism and Function of Drosophila capa GPCR: A Desiccation Stress-Responsive Receptor with Functional Homology to Human NeuromedinU Receptor” (PLoS ONE, 2012).

SMILES strings stand for the structures. Peptide text beside a SMILES is read from it.

The target in this assay is T1, NMU receptor 2 (NMUR 2) (Homo sapiens, UniProt Q9GZQ4).
T1 construct: expressed in transfected cells; host or cells: Drosophila S2 cells (pMT/V5-His TOPO)
The experiment in a line: [Ca2+]i (aequorin) in NMUR 2-transfected S2 cells. The class given is cell-based. The following applies: NMUR 2- and apoaequorin-co-transfected S2 cells; N = 3 (Fig. 3D); read-out: EC50, [Ca2+]i via NMUR 2. Here is the method: The capa peptides Drm-capa-1 (GANMGLYAFPRVamide), Drm-capa-2 (ASGLVAFPRVamide), Drm-PK-1 (TGPSASSGLWFGPRLamide), Drm-PK-2 (SVPFKPRLamide) and hugin gamma (hugg, pQLQSNGEPAYRVRTPRL-amide) were synthesised as C-terminally amidated peptides (Biomatik Corporation, Canada). Peptides were dissolved in distilled ACN/H2O to a concentration of 1 mM and then diluted to the required working concentration in Schneider's medium (Invitrogen Inc.). Human neuromedin U-25 was purchased from Sigma. Rabbit polyclonal antibody to porcine neuromedinU-8 was purchased from Progen biotechnik (Heidelberg, Germany). Rabbit capa precursor peptide used was described in [21] Rabbit anti-peptide antibody was raised against the capaR epitope (CQQGTNNRETRNSQM) by Genosphere Biotechnologies (Paris, France) and purified on a HiTrap NHS-activated HP column (Amersham Pharmacia Bio-tech; Buckinghamshire, UK) according to the manufacturer's instructions. Immunohistochemistry was carried out as described previously. Mouse anti-GFP primary antibody (Zymed) and the antiserum to neuromedinU-8 were all diluted 1∶1000 or, in the case of the pre-immune serum, the affinity-purified capaR antibody and the antiserum to the capa precursor peptide, 1∶500. Incubations in the primary antibodies were performed overnight. A FITC-conjugated affinity-purified goat anti-mouse antibody (Jackson Immunologicals) was used in a dilution of 1∶1,000 for visualization of the mouse monoclonal anti-GFP. A Texas red-conjugated affinity-purified goat anti-rabbit antibody (Jackson Immunologicals) was used at a dilution of 1∶1,000 for visualization of the rabbit capaR antiserum.
Drosophila S2 cells, cultured under standard conditions were transiently transfected with the apoaequorin ORF [21] and a receptor ORF construct, and expression induced using CuSO4. Transfected S2 cells were harvested and incubated with 2.5 µM coelenterazine in the dark at RT for 1–2 h as previously described. 25,000 cells were then placed in 135 µl Schneider's medium supplemented with 10% FCS in a well of a white polystyrene 96-well plate (Berthold Technologies). Bioluminescence recordings were carried out using a Mithras LB940 automated 96-well plate reader (Berthold Technologies) and MikroWin software. 15 µl of each of different peptides were applied to final concentrations as required. At the end of each recording samples were disrupted by the addition of 100 µl lysis solution, and the [Ca^2+] concentrations calculated as previously described. For assays in Ca^2+-free medium, transfected cells were collected and pelleted after incubation with coelenterazine. Cell pellets were re-suspended in Ca^2+-free Schneider's medium (Invitrogen Inc.) without FCS and collected by centrifugation. The washing and pelleting procedure was repeated once more. […]

T1 sequence (Q9GZQ4 whole entry): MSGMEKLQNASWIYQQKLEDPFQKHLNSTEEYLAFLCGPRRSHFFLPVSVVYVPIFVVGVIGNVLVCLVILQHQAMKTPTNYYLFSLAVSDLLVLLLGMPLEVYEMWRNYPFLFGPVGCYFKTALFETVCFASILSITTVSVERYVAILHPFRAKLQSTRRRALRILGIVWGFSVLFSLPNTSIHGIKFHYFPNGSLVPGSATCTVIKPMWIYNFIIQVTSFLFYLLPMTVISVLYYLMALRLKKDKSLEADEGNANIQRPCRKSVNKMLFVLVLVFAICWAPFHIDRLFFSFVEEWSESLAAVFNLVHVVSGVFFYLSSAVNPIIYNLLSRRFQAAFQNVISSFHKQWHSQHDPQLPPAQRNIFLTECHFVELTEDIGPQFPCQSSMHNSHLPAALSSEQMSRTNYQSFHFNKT

On to `CC(C)C[C@H](NC(=O)[C@H](Cc1ccccc1)NC(=O)[C@H](Cc1ccc(O)cc1)NC(=O)CNC(=O)[C@H](CCCNC(=N)N)NC(=O)[C@H](CO)NC(=O)[C@H](CCC(N)=O)NC(=O)[C@H](CO)NC(=O)[C@H](C)NC(=O)[C@H](Cc1ccccc1)NC(=O)[C@@H]1CCCN1C(=O)[C@H](CO)NC(=O)[C@H](CCC(N)=O)NC(=O)[C@H](Cc1ccccc1)NC(=O)[C@H](CCC(=O)O)NC(=O)[C@H](CCC(=O)O)NC(=O)[C@H](CC(=O)O)NC(=O)[C@@H](NC(=O)[C@H](CCCNC(=N)N)NC(=O)[C@@H](N)Cc1ccccc1)C(C)C)C(=O)N[C@@H](Cc1ccccc1)C(=O)N[C@@H](CCCNC(=N)N)C(=O)N1CCC[C@H]1C(=O)N[C@@H](CCCNC(=N)N)C(=O)N[C@@H](CC(N)=O)C(N)=O` [NMU-25, reference compound] (H-FRVDEEFQSPFASQSRGYFLFRPRN-NH2), for which the 50% effective concentration (EC50) came out at 0.91 nM.

Broadly, the EC50 is the concentration giving half of the maximal effect.
